Reference: ChEMBL document CHEMBL4613211, “Aurone: A biologically attractive scaffold as anticancer agent” (Eur J Med Chem, 2019)

How the values were obtained:
Format in all cases: functional
[1] = system: 786-0; assay: Growth inhibition of human 786-0 cells at 10 uM after 48 hrs by sulforhodamine B assay relative to control; settings: 786-0, 48 h, read-out: GI
[2] = system: OVCAR-3; assay: Growth inhibition of human OVCAR3 cells at 10 uM after 48 hrs by sulforhodamine B assay relative to control; settings: OVCAR-3, 48 h, read-out: GI
[3] = system: MDA-MB-435; assay: Growth inhibition of human MDA-MB-435 cells at 10 uM after 48 hrs by sulforhodamine B assay relative to control; settings: MDA-MB-435, 48 h, read-out: GI
[4] = system: Hs-578T; assay: Growth inhibition of human Hs 578T cells at 10 uM after 48 hrs by sulforhodamine B assay relative to control; settings: read-out: GI
[5] = system: A498; assay: Growth inhibition of human A498 cells at 10 uM after 48 hrs by sulforhodamine B assay relative to control; settings: A498, 48 h, read-out: GI
[6] = system: SK-MEL-2; assay: Growth inhibition of human SK-MEL-2 cells at 10 uM after 48 hrs by sulforhodamine B assay relative to control; settings: SK-MEL-2, 48 h, read-out: GI
[7] = system: NCI/ADR-RES; assay: Growth inhibition of human NCI-ADR-RES cells at 10 uM after 48 hrs by sulforhodamine B assay relative to control; settings: read-out: GI
[8] = system: SK-MEL-5; assay: Growth inhibition of human SK-MEL-5 cells at 10 uM after 48 hrs by sulforhodamine B assay relative to control; settings: SK-MEL-5, 48 h, read-out: GI
[9] = system: UACC-62; assay: Growth inhibition of human UACC62 cells at 10 uM after 48 hrs by sulforhodamine B assay relative to control; settings: UACC-62, 48 h, read-out: GI
[10] = system: SK-MEL-28; assay: Growth inhibition of human SK-MEL-28 cells at 10 uM after 48 hrs by sulforhodamine B assay relative to control; settings: SK-MEL-28, 48 h, read-out: GI
[11] = system: SNB-19; assay: Growth inhibition of human SNB19 cells at 10 uM after 48 hrs by sulforhodamine B assay relative to control; settings: SNB-19, 48 h, read-out: GI
[12] = system: MCF7; assay: Growth inhibition of human MCF7 cells at 10 uM after 48 hrs by sulforhodamine B assay relative to control; settings: MCF7, 48 h, read-out: GI
[13] = system: TK-10; assay: Growth inhibition of human TK10 cells at 10 uM after 48 hrs by sulforhodamine B assay relative to control; settings: TK-10, 48 h, read-out: GI
[14] = system: CAKI-1; assay: Growth inhibition of human CAKI-1 cells at 10 uM after 48 hrs by sulforhodamine B assay relative to control; settings: CAKI-1, 48 h, read-out: GI
[15] = system: UO-31; assay: Growth inhibition of human UO31 cells at 10 uM after 48 hrs by sulforhodamine B assay relative to control; settings: UO-31, 48 h, read-out: GI
[16] = system: KM12; assay: Growth inhibition of human KM12 cells at 10 uM after 48 hrs by sulforhodamine B assay relative to control; settings: KM12, 48 h, read-out: GI
[17] = system: COLO 205; assay: Growth inhibition of human COLO205 cells at 10 uM after 48 hrs by sulforhodamine B assay relative to control; settings: COLO 205, 48 h, read-out: GI
[18] = system: NCI-H460; assay: Growth inhibition of human NCI-H460 cells at 10 uM after 48 hrs by sulforhodamine B assay relative to control; settings: NCI-H460, 48 h, read-out: GI
[19] = system: A549; assay: Growth inhibition of human A549/ATCC cells at 10 uM after 48 hrs by sulforhodamine B assay relative to control; settings: A549, 48 h, read-out: GI
[20] = system: SW-620; assay: Growth inhibition of human SW620 cells at 10 uM after 48 hrs by sulforhodamine B assay relative to control; settings: SW-620, 48 h, read-out: GI
[21] = system: HOP-92; assay: Growth inhibition of human HOP92 cells at 10 uM after 48 hrs by sulforhodamine B assay relative to control; settings: HOP-92, 48 h, read-out: GI
[22] = system: HCC 2998; assay: Growth inhibition of human HCC2998 cells at 10 uM after 48 hrs by sulforhodamine B assay relative to control; settings: HCC 2998, 48 h, read-out: GI
[23] = system: U-251; assay: Growth inhibition of human U251 cells at 10 uM after 48 hrs by sulforhodamine B assay relative to control; settings: U-251, 48 h, read-out: GI
[24] = system: SF-295; assay: Growth inhibition of human SF295 cells at 10 uM after 48 hrs by sulforhodamine B assay relative to control; settings: SF-295, 48 h, read-out: GI
[25] = system: MDA-MB-231; assay: Growth inhibition of human MDA-MB-231 cells at 10 uM after 48 hrs by sulforhodamine B assay relative to control; settings: MDA-MB-231, 48 h, read-out: GI
[26] = system: EKVX; assay: Growth inhibition of human EKVX cells at 10 uM after 48 hrs by sulforhodamine B assay relative to control; settings: read-out: GI
[27] = system: K562; assay: Growth inhibition of human K562 cells at 10 uM after 48 hrs by sulforhodamine B assay relative to control; settings: K562, 48 h, read-out: GI
[28] = system: SF-268; assay: Growth inhibition of human SF268 cells at 10 uM after 48 hrs by sulforhodamine B assay relative to control; settings: SF-268, 48 h, read-out: GI
[29] = system: UACC-257; assay: Growth inhibition of human UACC257 cells at 10 uM after 48 hrs by sulforhodamine B assay relative to control; settings: UACC-257, 48 h, read-out: GI
[30] = system: RXF 393; assay: Growth inhibition of human RXF393 cells at 10 uM after 48 hrs by sulforhodamine B assay relative to control; settings: RXF 393, 48 h, read-out: GI
[31] = system: SR; assay: Growth inhibition of human SR cells at 10 uM after 48 hrs by sulforhodamine B assay relative to control; settings: read-out: GI
[32] = system: HOP-62; assay: Growth inhibition of human HOP62 cells at 10 uM after 48 hrs by sulforhodamine B assay relative to control; settings: HOP-62, 48 h, read-out: GI
[33] = system: SF-539; assay: Growth inhibition of human SF539 cells at 10 uM after 48 hrs by sulforhodamine B assay relative to control; settings: SF-539, 48 h, read-out: GI
[34] = system: T47D; assay: Growth inhibition of human T47D cells at 10 uM after 48 hrs by sulforhodamine B assay relative to control; settings: read-out: GI
[35] = system: SN12C; assay: Growth inhibition of human SN12C cells at 10 uM after 48 hrs by sulforhodamine B assay relative to control; settings: read-out: GI
[36] = system: OVCAR-4; assay: Growth inhibition of human OVCAR4 cells at 10 uM after 48 hrs by sulforhodamine B assay relative to control; settings: OVCAR-4, 48 h, read-out: GI
[37] = system: MOLT-4; assay: Growth inhibition of human MOLT4 cells at 10 uM after 48 hrs by sulforhodamine B assay relative to control; settings: MOLT-4, 48 h, read-out: GI

| SMILES | inhibition of growth at 10 µM [1] | inhibition of growth at 10 µM [2] | inhibition of growth at 10 µM [3] | inhibition of growth at 10 µM [4] | inhibition of growth at 10 µM [5] | inhibition of growth at 10 µM [6] | inhibition of growth at 10 µM [7] | inhibition of growth at 10 µM [8] | inhibition of growth at 10 µM [9] | inhibition of growth at 10 µM [10] | inhibition of growth at 10 µM [11] | inhibition of growth at 10 µM [12] | inhibition of growth at 10 µM [13] | inhibition of growth at 10 µM [14] | inhibition of growth at 10 µM [15] | inhibition of growth at 10 µM [16] | inhibition of growth at 10 µM [17] | inhibition of growth at 10 µM [18] | inhibition of growth at 10 µM [19] | inhibition of growth at 10 µM [20] | also measured |
| --- | --- | --- | --- | --- | --- | --- | --- | --- | --- | --- | --- | --- | --- | --- | --- | --- | --- | --- | --- | --- | --- |
| COc1ccc(/C=C2\Oc3c(c(OC)c4ccoc4c3CN3CCOCC3)C2=O)cc1 | 56.4 to 65.2% | 56.4 to 65.2% | 56.4 to 65.2% | 56.4 to 65.2% | 56.4 to 65.2% | 56.4 to 65.2% | 56.4 to 65.2% | 56.4 to 65.2% | 56.4 to 65.2% | 56.4 to 65.2% | 56.4 to 65.2% | 56.4 to 65.2% | 56.4 to 65.2% | 56.4 to 65.2% | 56.4 to 65.2% | 56.4 to 65.2% | 56.4 to 65.2% | 56.4 to 65.2% | 56.4 to 65.2% | 56.4 to 65.2% | inhibition of growth at 10 µM [21]: 56.4 to 65.2%; inhibition of growth at 10 µM [22]: 56.4 to 65.2%; inhibition of growth at 10 µM [23]: 56.4 to 65.2%; inhibition of growth at 10 µM [24]: 56.4 to 65.2%; inhibition of growth at 10 µM [25]: 56.4 to 65.2%; inhibition of growth at 10 µM [26]: 56.4 to 65.2%; inhibition of growth at 10 µM [27]: 56.4 to 65.2%; inhibition of growth at 10 µM [28]: 56.4 to 65.2%; inhibition of growth at 10 µM [29]: 56.4 to 65.2%; inhibition of growth at 10 µM [30]: 56.4 to 65.2%; inhibition of growth at 10 µM [31]: 56.4 to 65.2%; inhibition of growth at 10 µM [32]: 56.4 to 65.2%; inhibition of growth at 10 µM [33]: 56.4 to 65.2%; inhibition of growth at 10 µM [34]: 56.4 to 65.2%; inhibition of growth at 10 µM [35]: 56.4 to 65.2%; inhibition of growth at 10 µM [36]: 56.4 to 65.2%; inhibition of growth at 10 µM [37]: 56.4 to 65.2% |
| COc1ccc2c(c1)O/C(=C\c1ccc(OCC(=O)Nc3ccccc3)c(OC)c1)C2=O | 18.9 to 27.1% | 18.9 to 27.1% | 18.9 to 27.1% | 18.9 to 27.1% | 18.9 to 27.1% | 18.9 to 27.1% | 18.9 to 27.1% | 18.9 to 27.1% | 18.9 to 27.1% | 18.9 to 27.1% | 18.9 to 27.1% | 18.9 to 27.1% | 18.9 to 27.1% | 18.9 to 27.1% | 18.9 to 27.1% | 18.9 to 27.1% | 18.9 to 27.1% | 18.9 to 27.1% | 18.9 to 27.1% | 18.9 to 27.1% | inhibition of growth at 10 µM [21]: 18.9 to 27.1%; inhibition of growth at 10 µM [22]: 18.9 to 27.1%; inhibition of growth at 10 µM [23]: 18.9 to 27.1%; inhibition of growth at 10 µM [24]: 18.9 to 27.1%; inhibition of growth at 10 µM [25]: 18.9 to 27.1%; inhibition of growth at 10 µM [26]: 18.9 to 27.1%; inhibition of growth at 10 µM [27]: 18.9 to 27.1%; inhibition of growth at 10 µM [28]: 18.9 to 27.1%; inhibition of growth at 10 µM [29]: 18.9 to 27.1%; inhibition of growth at 10 µM [30]: 18.9 to 27.1%; inhibition of growth at 10 µM [31]: 18.9 to 27.1%; inhibition of growth at 10 µM [32]: 18.9 to 27.1%; inhibition of growth at 10 µM [33]: 18.9 to 27.1%; inhibition of growth at 10 µM [34]: 18.9 to 27.1%; inhibition of growth at 10 µM [35]: 18.9 to 27.1%; inhibition of growth at 10 µM [36]: 18.9 to 27.1%; inhibition of growth at 10 µM [37]: 18.9 to 27.1% |
| COc1cc(/C=C2\Oc3cc4occc4c(OC)c3C2=O)ccc1OCC(=O)Nc1ccccc1 | 67.1 to 79.6% | 67.1 to 79.6% | 67.1 to 79.6% | 67.1 to 79.6% | 67.1 to 79.6% | 67.1 to 79.6% | 67.1 to 79.6% | 67.1 to 79.6% | 67.1 to 79.6% | 67.1 to 79.6% | 67.1 to 79.6% | 67.1 to 79.6% | 67.1 to 79.6% | 67.1 to 79.6% | 67.1 to 79.6% | 67.1 to 79.6% | 67.1 to 79.6% | 67.1 to 79.6% | 67.1 to 79.6% | 67.1 to 79.6% | inhibition of growth at 10 µM [21]: 67.1 to 79.6%; inhibition of growth at 10 µM [22]: 67.1 to 79.6%; inhibition of growth at 10 µM [23]: 67.1 to 79.6%; inhibition of growth at 10 µM [24]: 67.1 to 79.6%; inhibition of growth at 10 µM [25]: 67.1 to 79.6%; inhibition of growth at 10 µM [26]: 67.1 to 79.6%; inhibition of growth at 10 µM [27]: 67.1 to 79.6%; inhibition of growth at 10 µM [28]: 67.1 to 79.6%; inhibition of growth at 10 µM [29]: 67.1 to 79.6%; inhibition of growth at 10 µM [30]: 67.1 to 79.6%; inhibition of growth at 10 µM [31]: 67.1 to 79.6%; inhibition of growth at 10 µM [32]: 67.1 to 79.6%; inhibition of growth at 10 µM [33]: 67.1 to 79.6%; inhibition of growth at 10 µM [34]: 67.1 to 79.6%; inhibition of growth at 10 µM [35]: 67.1 to 79.6%; inhibition of growth at 10 µM [36]: 67.1 to 79.6%; inhibition of growth at 10 µM [37]: 67.1 to 79.6% |
